According to patent publication US20190142971A1, “FORMULATION AND DELIVERY OF MODIFIED NUCLEOSIDE, NUCLEOTIDE, AND NUCLEIC ACID COMPOSITIONS” (ModernaTX, Inc., priority 2013, published 2019):

What was measured:
HeLa cells = experiment: Example 75: chemical modifications of luciferase mRNA, RLU (Table 114); type: cell-based; details: 83 ng luciferase mRNA, 18 to 22 hours
Experimental: The day before transfection, 20,000 HeLa cells (ATCC no. CCL-2; Manassas, Va.) were harvested by treatment with Trypsin-EDTA solution (Life Technologies, Grand Island, N.Y.) and seeded in a total volume of 100 ul EMEM medium (supplemented with 10% FCS and 1× Glutamax) per well in a 96-well cell culture plate (Corning, Manassas, Va.). The cells were grown at 37° C. in 5% CO2 atmosphere overnight. […] Lipofectamine 2000 (LifeTechnologies, Grand Island, N.Y.) was used as transfection reagent and 0.2 ul were diluted in 10 ul final volume of OPTI-MEM. After 5 minutes of incubation at room temperature, both solutions were combined and incubated an additional 15 minute at room temperature. Then the 20 ul combined solution was added to the 100 ul cell culture medium containing the HeLa cells and incubated at room temperature.
After 18 to 22 hours of incubation cells expressing luciferase were lysed with 100 ul of Passive Lysis Buffer (Promega, Madison, Wis.) according to manufacturer instructions. Aliquots of the lysates were transferred to white opaque polystyrene 96-well plates (Corning, Manassas, Va.) and combined with 100 ul complete luciferase assay solution (Promega, Madison, Wis.). The lysate volumes were adjusted or diluted until no more than 2 mio relative light units (RLU) per well were detected for the strongest signal producing samples and the RLUs for each chemistry tested are shown in Table 114. The plate reader was a BioTek Synergy H1 (BioTek, Winooski, Vt.). The background signal of the plates without reagent was about 200 relative light units per well.

HEK293A = experiment: Example 44: signal sequence exchange, secreted G-CSF ELISA (Table 70); type: cell-based; details: 293A, 250 ng mRNA, Lipofectamine 2000, supernatant 24 hrs
Text: (§1) These variants included the G-CSF constructs encoding either the wild-type N terminal secretory signal peptide sequence ([…]; SEQ ID NO: 19), no secretory signal peptide sequence, or secretory signal peptide sequences taken from other mRNAs. These included sequences where the wild type GCSF signal peptide sequence was replaced with the signal peptide sequence of either: human α-1-anti trypsin (AAT) ([…]; SEQ ID NO: 20), human Factor IX (FIX) ([…]; SEQ ID NO: 21), human Prolactin (Prolac) ([…]; SEQ ID NO: 22), or human Albumin (Alb) ([…]; SEQ ID NO: 23).
(§2) 250 ng of modified mRNA encoding each G-CSF variant was transfected into HEK293A (293A in the table), mouse myoblast (MM in the table) (C2C12, CRL-1772, ATCC) and rat myoblast (RM in the table) (L6 line, CRL-1458, ATCC) cell lines in a 24 well plate using 1 ul of Lipofectamine 2000 (Life Technologies), each well containing 300,000 cells. […] The data shown in Table 70 reveal that cells transfected with G-CSF mmRNA encoding the Albumin signal peptide secrete at least 12 fold more G-CSF protein than its wild type counterpart.

mouse myoblast (C2C12) = experiment: as above; type: cell-based; details: MM (mouse myoblast C2C12), 250 ng mRNA, supernatant 24 hrs
Text: as §1, §2

rat myoblast (L6 line) = experiment: as above; type: cell-based; details: RM (rat myoblast L6), 250 ng mRNA, supernatant 24 hrs
Text: as §1, §2

Balb-C mice = experiment: Example 88: chemically modified luciferase mRNA in PBS IM, SC, flux (Tables 136, 137); type: in vivo; details: luciferase mRNA in PBS (pH 7.4), 2.5 mg/kg
Experimental: Twenty minutes prior to imaging, mice were injected intraperitoneally with a D-luciferin solution at 150 mg/kg. Animals were then anesthetized and images were acquired with an IVIS Lumina II imaging system (Perkin Elmer). Bioluminescence was measured as total flux (photons/second) of the entire mouse. The mice were imaged at 2 hours, 8 hours and 24 hours. […] The background signal was 3.84E+05 (p/s).

Cn1cc([C@@H]2O[C@H](CO)[C@@H](O)[C@H]2O)c(=O)[nH]c1=O [Sample N1-methylpseudouridine, N1-methylpseudouridine]
RLU (HeLa cells): 3068261 RLU

Prolactin
secreted G-CSF protein (HEK293A): 7875 pg/mL | secreted G-CSF protein (mouse myoblast (C2C12)): 1525 pg/mL | secreted G-CSF protein (rat myoblast (L6 line)): 9800 pg/mL

O=c1[nH]cc([C@@H]2O[C@H](CO)[C@@H](O)[C@H]2O)c(=O)[nH]1 [Pseudouridine]
RLU (HeLa cells): 140234 RLU

O=c1[nH]c(=O)n([C@@H]2O[C@H](CO)[C@@H](O)[C@H]2O)cc1Br [Sample 5-Bromouridine, 5-Bromouridine]
RLU (HeLa cells): 6787 RLU

COc1cn([C@@H]2O[C@H](CO)[C@@H](O)[C@H]2O)c(=O)[nH]c1=O [Sample 5-methoxyuridine, 5-methoxyuridine]
RLU (HeLa cells): 219657 RLU

5-methylcytosine and pseudouridine
RLU (HeLa cells): 1601234 RLU

COc1cn([C@@H]2O[C@H](CO)[C@@H](O)[C@H]2O)c(=O)[nH]c1=O [Formulation 5-methoxyuridine, 5-methoxyuridine]
Flux, Intramuscular Administration (Balb-C mice; 2 hours): 4.93E+06 p/s | Flux, Intramuscular Administration (Balb-C mice; 8 hours): 1.80E+07 p/s | Flux, Intramuscular Administration (Balb-C mice; 24 hours): 4.53E+07 p/s | Flux, Subcutaneous Administration (Balb-C mice; 2 hours): 7.10E+06 p/s | Flux, Subcutaneous Administration (Balb-C mice; 8 hours): 9.38E+06 p/s | Flux, Subcutaneous Administration (Balb-C mice; 24 hours): 1.32E+07 p/s

CC(=O)Nc1ccn([C@@H]2O[C@H](CO)[C@@H](O)[C@H]2O)c(=O)n1 [Formulation N4-acetylcytidine, N4-acetylcytidine]
Flux, Intramuscular Administration (Balb-C mice; 2 hours): 1.32E+07 p/s | Flux, Intramuscular Administration (Balb-C mice; 8 hours): 2.15E+07 p/s | Flux, Intramuscular Administration (Balb-C mice; 24 hours): 4.01E+07 p/s | Flux, Subcutaneous Administration (Balb-C mice; 2 hours): 3.07E+07 p/s | Flux, Subcutaneous Administration (Balb-C mice; 8 hours): 1.23E+07 p/s | Flux, Subcutaneous Administration (Balb-C mice; 24 hours): 1.28E+07 p/s

α-1-anti trypsin
secreted G-CSF protein (HEK293A): 9950 pg/mL | secreted G-CSF protein (mouse myoblast (C2C12)): 5000 pg/mL | secreted G-CSF protein (rat myoblast (L6 line)): 8475 pg/mL

Albumin
secreted G-CSF protein (HEK293A): 122050 pg/mL | secreted G-CSF protein (mouse myoblast (C2C12)): 81050 pg/mL | secreted G-CSF protein (rat myoblast (L6 line)): 173300 pg/mL

CC(=O)Nc1ccn([C@@H]2O[C@H](CO)[C@@H](O)[C@H]2O)c(=O)n1 [Sample N4-Acetylcytidine, N4-Acetylcytidine]
RLU (HeLa cells): 1073251 RLU
